Assay results published in publication PMC8037182, “Solvothermal Synthesis of Multiple Dihydropyrimidinones at a Time as Inhibitors of Eg5” (Molecules, 2021).
“And” between values parts separate entries of the source, which are not always exact repeats. Equal entries are not always repeated.

Columns and labels:
L929 cell line = assay: Cytotoxicity MTS assay, L929 cell line; assay type: cell-based; conditions: for OD490 values, Mean / OD490 values, Well 1 / OD490 values, Well 2 / OD490 values, Well 3 / OD490, single wells / OD490 Mean: L929 cell line; for OD490, single wells / OD490 Mean: MTS; for OD490, single wells: Well 1-3; for OD490 Mean: mean of 3 wells
In short: (§1)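 Absorbance at 490 nm after a 2 h MTS step at 37 °C gave cell viability. Before that, cells plated at 1000/well were treated for 24 h with compounds spanning 0.5–100 µM (final). IC50 values were fitted by non-linear regression of percent viability versus concentration.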

Hela cell line = assay: Cytotoxicity MTS assay, Hela cell line; assay type: cell-based; conditions: for OD490 Mean / OD490 Well 1 / OD490 Well 2 / OD490 Well 3: Hela cell line; for IC50: MTS assay, 24 h exposure;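 for OD490 Mean: blank control DMSO at 0.025% final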;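 for OD490 Well 1: blank control DMSO at 0.025% final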;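 for OD490 Well 2: blank control DMSO at 0.025% final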;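 for OD490 Well 3: blank control DMSO at 0.025% final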
In short: as §1

SMILES: CCOC(=O)C1=C(C)NC(=S)NC1c1cccc(O)c1 (stereo not drawn) [Monastrol, monastrol, reference compound]
- OD490 values, Mean (L929 cell line; 50μM, first assay): 1.3431
- OD490 values, Well 1 (L929 cell line; 50μM, first assay): 1.3844
- OD490 values, Well 2 (L929 cell line; 50μM, first assay): 1.2943
- OD490 values, Well 3 (L929 cell line; 50μM, first assay): 1.3505
- OD490 values, Mean (L929 cell line; 50μM, second assay): 1.3490
- OD490 values, Well 1 (L929 cell line; 50μM, second assay): 1.3355
- OD490 values, Well 2 (L929 cell line; 50μM, second assay): 1.2894
- OD490 values, Well 3 (L929 cell line; 50μM, second assay): 1.4221
- OD490 values, Mean (L929 cell line; 50μM, third assay): 1.5704
- OD490 values, Well 1 (L929 cell line; 50μM, third assay): 1.5524
- OD490 values, Well 2 (L929 cell line; 50μM, third assay): 1.4714
- OD490 values, Well 3 (L929 cell line; 50μM, third assay): 1.6874
- OD490 values, Mean (L929 cell line; 100μM, first assay): 1.0251
- OD490 values, Well 1 (L929 cell line; 100μM, first assay): 1.0639
- OD490 values, Well 2 (L929 cell line; 100μM, first assay): 1.0037
- OD490 values, Well 3 (L929 cell line; 100μM, first assay): 1.0076
- OD490 values, Mean (L929 cell line; 100μM, second assay): 1.2469
- OD490 values, Well 1 (L929 cell line; 100μM, second assay): 1.2354
- OD490 values, Well 2 (L929 cell line; 100μM, second assay): 1.2789
- OD490 values, Well 3 (L929 cell line; 100μM, second assay): 1.2265
- OD490 values, Mean (L929 cell line; 100μM, third assay): 1.4401
- OD490 values, Well 1 (L929 cell line; 100μM, third assay): 1.4541
- OD490 values, Well 2 (L929 cell line; 100μM, third assay): 1.4710
- OD490 values, Well 3 (L929 cell line; 100μM, third assay): 1.3952
- OD490, single wells (L929 cell line; 1μM, first assay): 1.2759 and 1.1464 and 1.2212
- OD490 Mean (L929 cell line; 1μM, first assay): 1.2145
- OD490, single wells (L929 cell line; 1μM, second assay): 1.3847 and 1.2145 and 1.3654
- OD490 Mean (L929 cell line; 1μM, second assay): 1.3215
- OD490, single wells (L929 cell line; 1μM, third assay): 1.5474 and 1.5368 and 1.4987
- OD490 Mean (L929 cell line; 1μM, third assay): 1.5276
- OD490, single wells (L929 cell line; 1.5μM, first assay): 1.1568 and 1.0812 and 1.2095
- OD490 Mean (L929 cell line; 1.5μM, first assay): 1.1492
- OD490, single wells (L929 cell line; 1.5μM, second assay): 1.2478 and 1.3254 and 1.2897
- OD490 Mean (L929 cell line; 1.5μM, second assay): 1.2876
- OD490, single wells (L929 cell line; 1.5μM, third assay): 1.5823 and 1.5874 and 1.5332
- OD490 Mean (L929 cell line; 1.5μM, third assay): 1.5676
- OD490, single wells (L929 cell line; 10μM, first assay): 1.1741 and 1.1023 and 1.0651
- OD490 Mean (L929 cell line; 10μM, first assay): 1.1138
- OD490, single wells (L929 cell line; 10μM, second assay): 1.3582 and 1.6874 and 1.3354
- OD490 Mean (L929 cell line; 10μM, second assay): 1.4603
- OD490, single wells (L929 cell line; 10μM, third assay): 1.4784 and 1.4585 and 1.6874
- OD490 Mean (L929 cell line; 10μM, third assay): 1.5414
- OD490, single wells (L929 cell line; 25μM, first assay): 1.2192 and 1.1415 and 1.0377
- OD490 Mean (L929 cell line; 25μM, first assay): 1.1328
- OD490, single wells (L929 cell line; 25μM, second assay): 1.2214 and 1.3652
- OD490 Mean (L929 cell line; 25μM, second assay): 1.3173
- OD490, single wells (L929 cell line; 25μM, third assay): 1.6324 and 1.5241 and 1.7241
- OD490 Mean (L929 cell line; 25μM, third assay): 1.6269
- IC50 (L929 cell line; Mus musculus, L929, MTS assay, 24 h exposure, ordinary fibroblast, not cancer cells): > 150 µM
- OD490 Mean (Hela cell line; 0.5μM, first assay): 2.4571
- OD490 Well 1 (Hela cell line; 0.5μM, first assay): 2.3556
- OD490 Well 2 (Hela cell line; 0.5μM, first assay): 2.5698
- OD490 Well 3 (Hela cell line; 0.5μM, first assay): 2.4458
- OD490 Mean (Hela cell line; 0.5μM, second assay): 2.6032
- OD490 Well 1 (Hela cell line; 0.5μM, second assay): 2.5874
- OD490 Well 2 (Hela cell line; 0.5μM, second assay): 2.6523
- OD490 Well 3 (Hela cell line; 0.5μM, second assay): 2.5698
- OD490 Mean (Hela cell line; 0.5μM, third assay): 2.6247
- OD490 Well 1 (Hela cell line; 0.5μM, third assay): 2.6417
- OD490 Well 2 (Hela cell line; 0.5μM, third assay): 2.5470
- OD490 Well 3 (Hela cell line; 0.5μM, third assay): 2.6854
- OD490 Mean (Hela cell line; 1μM, first assay): 2.1630
- OD490 Well 1 (Hela cell line; 1μM, first assay): 2.3365
- OD490 Well 2 (Hela cell line; 1μM, first assay): 2.0131
- OD490 Well 3 (Hela cell line; 1μM, first assay): 2.1393
- OD490 Mean (Hela cell line; 1μM, second assay): 2.5460
- OD490 Well 1 (Hela cell line; 1μM, second assay): 2.5687
- OD490 Well 2 (Hela cell line; 1μM, second assay): 2.5478
- OD490 Well 3 (Hela cell line; 1μM, second assay): 2.5214
- OD490 Mean (Hela cell line; 1μM, third assay): 2.5064
- OD490 Well 1 (Hela cell line; 1μM, third assay): 2.5748
- OD490 Well 2 (Hela cell line; 1μM, third assay): 2.5214
- OD490 Well 3 (Hela cell line; 1μM, third assay): 2.4230
- OD490 Mean (Hela cell line; 10μM, first assay): 2.2162
- OD490 Well 1 (Hela cell line; 10μM, first assay): 2.1607
- OD490 Well 2 (Hela cell line; 10μM, first assay): 2.2561
- OD490 Well 3 (Hela cell line; 10μM, first assay): 2.2317
- OD490 Mean (Hela cell line; 10μM, second assay): 2.5812
- OD490 Well 1 (Hela cell line; 10μM, second assay): 2.6541
- OD490 Well 2 (Hela cell line; 10μM, second assay): 2.5541
- OD490 Well 3 (Hela cell line; 10μM, second assay): 2.5354
- OD490 Mean (Hela cell line; 10μM, third assay): 2.5198
- OD490 Well 1 (Hela cell line; 10μM, third assay): 2.6510
- OD490 Well 2 (Hela cell line; 10μM, third assay): 2.2561
- OD490 Well 3 (Hela cell line; 10μM, third assay): 2.6524
- OD490 Mean (Hela cell line; 25μM, first assay): 2.2546
- OD490 Well 1 (Hela cell line; 25μM, first assay): 2.1835
- OD490 Well 2 (Hela cell line; 25μM, first assay): 2.2875
- OD490 Well 3 (Hela cell line; 25μM, first assay): 2.2928
- OD490 Mean (Hela cell line; 25μM, second assay): 2.5253
- OD490 Well 1 (Hela cell line; 25μM, second assay): 2.6854
- OD490 Well 2 (Hela cell line; 25μM, second assay): 2.3365
- OD490 Well 3 (Hela cell line; 25μM, second assay): 2.5541
- OD490 Mean (Hela cell line; 25μM, third assay): 2.5000
- OD490 Well 1 (Hela cell line; 25μM, third assay): 2.5874
- OD490 Well 2 (Hela cell line; 25μM, third assay): 2.2584
- OD490 Well 3 (Hela cell line; 25μM, third assay): 2.6541
- OD490 Mean (Hela cell line; 50μM, first assay): 2.5586
- OD490 Well 1 (Hela cell line; 50μM, first assay): 2.7188
- OD490 Well 2 (Hela cell line; 50μM, first assay): 2.4306
- OD490 Well 3 (Hela cell line; 50μM, first assay): 2.5263
- OD490 Mean (Hela cell line; 50μM, second assay): 2.4511
- OD490 Well 1 (Hela cell line; 50μM, second assay): 2.3541
- OD490 Well 2 (Hela cell line; 50μM, second assay): 2.5478
- OD490 Well 3 (Hela cell line; 50μM, second assay): 2.4514
- OD490 Mean (Hela cell line; 50μM, third assay): 2.6173
- OD490 Well 1 (Hela cell line; 50μM, third assay): 2.5412
- OD490 Well 2 (Hela cell line; 50μM, third assay): 2.6521
- OD490 Well 3 (Hela cell line; 50μM, third assay): 2.6587
- OD490 Mean (Hela cell line; 100μM, first assay): 2.2182
- OD490 Well 1 (Hela cell line; 100μM, first assay): 2.3464
- OD490 Well 2 (Hela cell line; 100μM, first assay): 2.1470
- OD490 Well 3 (Hela cell line; 100μM, first assay): 2.1612
- OD490 Mean (Hela cell line; 100μM, second assay): 2.5306
- OD490 Well 1 (Hela cell line; 100μM, second assay): 2.4236
- OD490 Well 2 (Hela cell line; 100μM, second assay): 2.6540
- OD490 Well 3 (Hela cell line; 100μM, second assay): 2.5142
- OD490 Mean (Hela cell line; 100μM, third assay): 2.4597
- OD490 Well 1 (Hela cell line; 100μM, third assay): 2.3654
- OD490 Well 2 (Hela cell line; 100μM, third assay): 2.5784
- OD490 Well 3 (Hela cell line; 100μM, third assay): 2.4352
- IC50 (Hela cell line; Homo sapiens, HeLa, 24 h): > 150 µM
- IC50 (Hela cell line): > 150 µM
